Experimental data from patent US20230146593A1, “METHOD FOR TREATMENT AND PROPHYLAXIS OF CRS IN PATIENTS COMPRISING A COMBINATION OF BISPECIFIC ANTIBODIES BINDING TO CDS X CANCER CELL AND TNF ALPHA OR IL-6 INHIBITOR” (AMGEN INC., priority 2020, published 2023).

Experiments:
[1] = system: VCAM-1 on endothelial cells (HUVEC); test: Blinatumumab VCAM assay: VCAM-1 on CD31+ HUVEC in co-culture with T cells and NALM-6 cells (flow cytometry); type: cell-based, human; conditions: co-culture of HUVEC, isolated T cells and NALM-6 target cells
Experimental: FIG. 7. VCAM-1 Expression on HUVEC in AMG 103 Co-culture Assays: VCAM-1 expression by flow cytometry. […] expression levels are expressed as Median Fluorescence Intensity (MFI). VCAM-1 expressing HUVEC are expressed as percentage of CD31+ HUVEC. Error bars indicate the standard error of the mean of duplicate measurements. Two PBMC donors were used in this experiment.
The effect of blinatumumab (AMG 103) on T cell activation and the induction of VCAM-1 on endothelial cells was analyzed in co-cultures of HUVEC, isolated T cells and CD19-expressing NALM-6 target cells. VCAM-1 expression on CD31+ HUVEC was analyzed by flow cytometry.

TNF = TNF levels in patients after blinatumomab in cycle 1; type: in vivo, human
[2] = system: Adult patients with R/R AML (CRS); conditions: human, in vivo

blinatumomab
VCAM-1 expression on CD31+ HUVEC [1]: up-regulated | time to maximum TNF levels (TNF): ≤ 2 h

C[C@@H]1C[C@H]2[C@@H]3CCC4=CC(=O)C=C[C@]4(C)[C@@]3(F)[C@@H](O)C[C@]2(C)[C@@]1(O)C(=O)CO [dexamethasone]
CRS events per patient [2]: 2.3 per patient | average duration of CRS events [2]: (b) average duration: 58 hrs
